≈ marks a conversion by molar mass, not a printed value.
Columns and labels:
[1] = tested on: vancomycin-sensitive enterococci; experiment: In vitro activity against enterococci, broth microdilution; format: cell-based, Enterococcus faecium and Enterococcus faecalis; conditions: representative vancomycin-sensitive enterococci (E. faecium and E. faecalis); BHI medium
Protocol: (§1) The compounds of the present invention have in vitro activity against Gram-positive pathogenic bacteria. The antibacterial activity of the present compounds is illustrated in Tables III and IV. The minimal inhibitory concentrations (MICs) were determined using a standard broth micro-dilution assay. Table IV presents a comparison of the activity of illustrative compounds against representative vancomycin-resistant and vancomycin-sensitive enterococci (Enterococcus faecium and Enterococcus faecalis), mean geometric MIC (mcg/mL), as determined by the standard broth microdilution assay.
(§2) Assays for antimicrobial activity were performed using microbroth susceptibility testing methods as described by the NCCLS (National Committee for Clinical Laboratories Standards. 1990. Approved standard M7-A2. Methods for dilution antimicrobial susceptibility testing for bacteria that grow aerobically, 2 ed., Villanova Pa.). Brain-heart infusion medium (BHI) was used for testing of enterococci, and NCCLS recommendations for medium were followed for other bacteria.

[2] = tested on: vancomycin-resistant enterococci; experiment: as above; format: cell-based, Enterococcus faecium and Enterococcus faecalis; conditions: representative vancomycin-resistant enterococci (E. faecium and E. faecalis); BHI medium
Protocol: as §1, §2

[3] = tested on: Staphylococcus aureus S13E; experiment: Broth micro-dilution MIC; format: cell-based
Protocol: as §1, §2

[4] = tested on: Enterococcus faecium 180-1; experiment: Broth micro-dilution MIC; format: cell-based; conditions: BHI medium
Protocol: as §1, §2

[5] = tested on: Streptococcus pyogenes C203; experiment: Broth micro-dilution MIC; format: cell-based
Protocol: as §1, §2

[6] = tested on: Enterococcus gallinarum 245; experiment: Broth micro-dilution MIC; format: cell-based; conditions: BHI medium
Protocol: as §1, §2

[7] = tested on: Haemophilus influenzae RD; experiment: Broth micro-dilution MIC; format: cell-based
Protocol: as §1, §2

[8] = tested on: Staphylococcus haemolyticus 415; experiment: Broth micro-dilution MIC; format: cell-based
Protocol: as §1, §2

[9] = tested on: Streptococcus pneumoniae P1; experiment: Broth micro-dilution MIC; format: cell-based
Protocol: as §1, §2

[10] = tested on: Staphylococcus aureus 489; experiment: Broth micro-dilution MIC; format: cell-based
Protocol: as §1, §2

[11] = tested on: Staphylococcus haemolyticus 105; experiment: Broth micro-dilution MIC; format: cell-based
Protocol: as §1, §2

[12] = tested on: Enterococcus faecalis 2041; experiment: Broth micro-dilution MIC; format: cell-based; conditions: BHI medium
Protocol: as §1, §2

[13] = tested on: Staphylococcus aureus X400; experiment: Broth micro-dilution MIC; format: cell-based
Protocol: as §1, §2

[14] = tested on: Staphylococcus aureus 446; experiment: Broth micro-dilution MIC; format: cell-based
Protocol: as §1, §2

[15] = tested on: Staphylococcus aureus SA1199A; experiment: Broth micro-dilution MIC; format: cell-based
Protocol: as §1, §2

[16] = tested on: Enterococcus faecalis 276; experiment: Broth micro-dilution MIC; format: cell-based; conditions: BHI medium
Protocol: as §1, §2

[17] = tested on: Staphylococcus aureus SA1199; experiment: Broth micro-dilution MIC; format: cell-based
Protocol: as §1, §2

[18] = tested on: Staphylococcus aureus 447; experiment: Broth micro-dilution MIC; format: cell-based
Protocol: as §1, §2

Escherichia coli EC14 = experiment: Broth micro-dilution MIC; format: cell-based
Protocol: as §1, §2

[19] = tested on: Staphylococcus aureus SA1199B; experiment: Broth micro-dilution MIC; format: cell-based
Protocol: as §1, §2

[20] = tested on: Staphylococcus aureus X778; experiment: Broth micro-dilution MIC; format: cell-based
Protocol: as §1, §2

Enterococcus faecium 180 = experiment: Broth micro-dilution MIC; format: cell-based; conditions: BHI medium
Protocol: as §1, §2

[21] = tested on: Staphylococcus epidermidis 270; experiment: Broth micro-dilution MIC; format: cell-based
Protocol: as §1, §2

[22] = tested on: Staphylococcus aureus 491; experiment: Broth micro-dilution MIC; format: cell-based
Protocol: as §1, §2

| Structure (SMILES) | Mean geometric MIC, Vancomycin Sensitive Strains [1] [µg/mL] | Mean geometric MIC, Vancomycin Resistant Strains [2] [µg/mL] | MIC [3] | MIC [4] | MIC [5] | MIC [6] [µg/mL] | MIC [8] [µg/mL] | MIC [9] | MIC [10] | MIC [11] | MIC [12] | MIC [13] [µg/mL] | MIC [14] [µg/mL] | MIC [15] | MIC [16] | MIC [17] [µg/mL] | MIC [18] [µg/mL] | MIC (Escherichia coli EC14) [µg/mL] | MIC [19] [µg/mL] | MIC [20] | further results |
| --- | --- | --- | --- | --- | --- | --- | --- | --- | --- | --- | --- | --- | --- | --- | --- | --- | --- | --- | --- | --- | --- |
| CCCCCCCC(=O)NC1(C)CC(OC2C(Oc3c4cc5cc3Oc3ccc(cc3Cl)C(OC3CC(C)(N)C(O)C(C)O3)C3NC(=O)C(NC(=O)C5NC(=O)C(CC(N)=O)NC(=O)C(NC(=O)C(CC(C)C)NC)C(O)c5ccc(c(Cl)c5)O4)c4ccc(O)c(c4)-c4c(O)cc(O)cc4C(C(=O)O)NC3=O)OC(CO)C(O)C2O)OC(C)C1O (centres unmarked) [Example 8, 4′-N-octanoyl-A82846B] | 0.87 | 54 | 2 µg/mL (≈ 1.16 µM) | 0.125 µg/mL (≈ 0.0727 µM) | ≦.06 μg/ml | 16 (≈ 9.31 µM) | 16 (≈ 9.31 µM) | ≦.06 μg/ml | 0.25 µg/mL (≈ 0.145 µM) | 0.5 µg/mL (≈ 0.291 µM) | 0.25 µg/mL (≈ 0.145 µM) | 0.5 (≈ 0.291 µM) | 2 (≈ 1.16 µM) | 0.25 µg/mL (≈ 0.145 µM) | 0.5 µg/mL (≈ 0.291 µM) | 2 (≈ 1.16 µM) | 8 (≈ 4.65 µM) | >64 | 2 (≈ 1.16 µM) | 1 µg/mL (≈ 0.582 µM) | MIC [7]: 64 µg/mL (≈ 37.2 µM); MIC (Enterococcus faecium 180): 2 µg/mL (≈ 1.16 µM); MIC [21]: 8 µg/mL (≈ 4.65 µM); MIC [22]: 0.25 µg/mL (≈ 0.145 µM) |
| CC(C)CC(C(=O)NC1C(=O)NC(CC(N)=O)C(=O)NC2C(=O)NC3C(=O)NC(C(=O)NC(C(=O)O)c4cc(O)cc(O)c4-c4cc3ccc4O)C(OC3CC(C)(N)C(O)C(C)O3)c3ccc(c(Cl)c3)Oc3cc2cc(c3OC2OC(CO)C(O)C(O)C2OC2CC(C)(N)C(O)C(C)O2)Oc2ccc(cc2Cl)C1O)N(C)C(=O)CCCCCCCc1ccccc1 (centres unmarked) [Example 13] | 1.5 | >51 | 0.5 µg/mL (≈ 0.279 µM) | ≦.06 μg/ml | ≦.06 μg/ml | 2 (≈ 1.11 µM) | 8 (≈ 4.46 µM) | ≦.06 μg/ml | 0.125 µg/mL (≈ 0.0696 µM) | ≦.06 μg/ml | 0.25 µg/mL (≈ 0.139 µM) | 0.25 (≈ 0.139 µM) | 0.5 (≈ 0.279 µM) | ≦.06 μg/ml | 0.25 µg/mL (≈ 0.139 µM) | 0.5 (≈ 0.279 µM) | 0.5 (≈ 0.279 µM) | >64 | 0.25 (≈ 0.139 µM) | 0.25 µg/mL (≈ 0.139 µM) | MIC (Enterococcus faecium 180): 8 µg/mL (≈ 4.46 µM); MIC [21]: 0.25 µg/mL (≈ 0.139 µM); MIC [22]: 0.125 µg/mL (≈ 0.0696 µM) |
| CCCCCCCC(=O)N(C)C(CC(C)C)C(=O)NC1C(=O)NC(CC(N)=O)C(=O)NC2C(=O)NC3C(=O)NC(C(=O)NC(C(=O)O)c4cc(O)cc(O)c4-c4cc3ccc4O)C(OC3CC(C)(N)C(O)C(C)O3)c3ccc(c(Cl)c3)Oc3cc2cc(c3OC2OC(CO)C(O)C(O)C2OC2CC(C)(N)C(O)C(C)O2)Oc2ccc(cc2Cl)C1O (centres unmarked) [Example 10, 1′-N-octanoyl-A82846B] | 2.3 | 90 | 0.5 µg/mL (≈ 0.291 µM) | ≦.06 μg/ml | ≦.06 μg/ml | 2 (≈ 1.16 µM) | 16 (≈ 9.31 µM) | ≦.06 μg/ml | 0.25 µg/mL (≈ 0.145 µM) | 1 µg/mL (≈ 0.582 µM) | 0.25 µg/mL (≈ 0.145 µM) | 0.5 (≈ 0.291 µM) | 1 (≈ 0.582 µM) | 0.125 µg/mL (≈ 0.0727 µM) | 0.25 µg/mL (≈ 0.145 µM) | 0.5 (≈ 0.291 µM) | 1 (≈ 0.582 µM) | >64 | 0.5 (≈ 0.291 µM) | 0.5 µg/mL (≈ 0.291 µM) | MIC (Enterococcus faecium 180): 32 µg/mL (≈ 18.6 µM); MIC [21]: 0.5 µg/mL (≈ 0.291 µM); MIC [22]: 0.25 µg/mL (≈ 0.145 µM) |
| CNC(CC(C)C)C(=O)NC1C(=O)NC(CC(N)=O)C(=O)NC2C(=O)NC3C(=O)NC(C(=O)NC(C(=O)O)c4cc(O)cc(O)c4-c4cc3ccc4O)C(OC3CC(C)(N)C(O)C(C)O3)c3ccc(c(Cl)c3)Oc3cc2cc(c3OC2OC(CO)C(O)C(O)C2OC2CC(C)(NC(=O)CCCCCCCc3ccccc3)C(O)C(C)O2)Oc2ccc(cc2Cl)C1O (centres unmarked) [Example 11] | 0.093 | 9.5 | 0.25 µg/mL (≈ 0.139 µM) | ≦.06 μg/ml | ≦.06 μg/ml | 4 (≈ 2.23 µM) | 4 (≈ 2.23 µM) | ≦.06 μg/ml | 0.25 µg/mL (≈ 0.139 µM) | ≦.06 μg/ml | ≦.06 μg/ml | 0.5 (≈ 0.279 µM) | 1 (≈ 0.557 µM) | ≦.06 μg/ml | 0.25 µg/mL (≈ 0.139 µM) | 1 (≈ 0.557 µM) | 2 (≈ 1.11 µM) | >64 | 0.25 (≈ 0.139 µM) | 0.125 µg/mL (≈ 0.0696 µM) | MIC (Enterococcus faecium 180): 0.5 µg/mL (≈ 0.279 µM); MIC [21]: 1 µg/mL (≈ 0.557 µM); MIC [22]: 0.125 µg/mL (≈ 0.0696 µM) |
| CNC(CC(C)C)C(=O)NC1C(=O)NC(CC(N)=O)C(=O)NC2C(=O)NC3C(=O)NC(C(=O)NC(C(=O)O)c4cc(O)cc(O)c4-c4cc3ccc4O)C(OC3CC(C)(NC(=O)CCCCCCCc4ccccc4)C(O)C(C)O3)c3ccc(c(Cl)c3)Oc3cc2cc(c3OC2OC(CO)C(O)C(O)C2OC2CC(C)(N)C(O)C(C)O2)Oc2ccc(cc2Cl)C1O (centres unmarked) [Example 12] | 0.33 | 45 | ≦.06 μg/ml | ≦.06 μg/ml | ≦.06 μg/ml | 8 (≈ 4.46 µM) | 8 (≈ 4.46 µM) | ≦.06 μg/ml | ≦.06 μg/ml | ≦.06 μg/ml | ≦.06 μg/ml | 0.125 (≈ 0.0696 µM) | 0.125 (≈ 0.0696 µM) | ≦.06 μg/ml | ≦.06 μg/ml | 0.25 (≈ 0.139 µM) | 2 (≈ 1.11 µM) | >64 | 0.125 (≈ 0.0696 µM) | ≦.06 μg/ml | MIC (Enterococcus faecium 180): 2 µg/mL (≈ 1.11 µM); MIC [21]: 2 µg/mL (≈ 1.11 µM); MIC [22]: ≦.06 μg/ml |
